System: statin-intolerant patients with or at high risk of CVD
Test: CLEAR OUTCOMES trial (Example 1): adverse events and safety laboratory findings
Format: in vivo, human
From the text: The CLEAR OUTCOMES trial was a randomized, placebo-controlled, double-blind trial that enrolled patients at 1250 sites in 32 countries. An independent Data Monitoring Committee reviewed safety and efficacy data during the trial.
Patients 18 to 85 years of age were eligible for enrollment if they met either of two criteria for increased cardiovascular risk, a prior cardiovascular event (secondary prevention) or clinical features that placed them at high risk for a cardiovascular event (primary prevention). (Nicholls S. Lincoff A M, Bays H E, et al. Rationale and design of the CLEAR-outcomes trial: Evaluating the effect of bempedoic acid on cardiovascular events in patients with statin intolerance. Am Heart J. 2021 May; 235:104-112) All patients provided written informed consent. Patients had to report statin intolerance due to an adverse effect that started or increased during statin therapy and resolved or improved after statin therapy was discontinued. Patients could be enrolled if they tolerated a very low average daily statin dose (e.g., an average daily dose of rosuvastatin <5 mg, atorvastatin <10 mg, simvastatin <10 mg, lovastatin <20 mg, pravastatin <40 mg, fluvastatin <40 mg, or pitavastatin <2 mg). Other lipid-lowering therapies were permitted, including ezetimibe, niacin, bile acid resins, fibrates, and/or proprotein convertase subtilisin kexin type 9 (PCSK9) inhibitors. Full inclusion and exclusion criteria are provided in Nicholls et al. (Am Heart J. 2021).
Eligible patients entered a 4-week run-in period during which patients were treated with single-blind placebo. If patients were intolerant to placebo treatment or if adherence was <80% by tablet count, they were not eligible for randomization. Patients who successfully completed the run-in period were randomly assigned in a 1:1 ratio to receive bempedoic acid at an oral dose of 180 mg or matching placebo, administered daily. Beginning 6 months after enrollment, the central laboratory notified the investigator if the patient's LDL-cholesterol level was ≥25% higher than baseline. These patients were counseled on healthy dietary guidelines and reminded to take all lipid-regulating medications. If repeat testing confirmed that LDL-cholesterol value met the threshold criteria, the provider could adjust the lipid-lowering treatment regimen per standard of care and local guidelines.

[1] = at any visit, repeated and confirmed, N = 7001

With `CC(C)(CCCCCC(O)CCCCCC(C)(C)C(=O)O)C(=O)O` [Bempedoic Acid, Bempedoic acid] as the molecule, how does the “New onset diabetes in patients with normoglycemia at baseline, %” value (180 mg oral daily) read?
Its value is 5.5%.

What about the “New onset diabetes in patients with pre-diabetes at baseline, %” value (180 mg oral daily) of the same molecule?
Its value is 19.5%.

What about the “Adjudicated tendon rupture, %” value (180 mg oral daily, N = 7001) of the same molecule?
The value was 1.2%.

And the “Adverse event leading to drug discontinuation, %” value (180 mg oral daily, N = 7001)?
Its value is 11.0%.

What about the “Any muscle disorder, %” value (180 mg oral daily, N = 7001) of the same molecule?
The value was 15.0%.

What about the “Any treatment emergent adverse event, %” value (180 mg oral daily, N = 7001) of the same molecule?
The value was 86.3%.

And the “Atrial fibrillation, %” value (180 mg oral daily, N = 7001)?
The value was 3.3%.

And the “Cholelithiasis, %” value (180 mg oral daily, N = 7001)?
The value was 2.2%.

What about the “Discontinuation of treatment due to myalgia, %” value (180 mg oral daily, N = 7001) of the same molecule?
The value was 1.8%.

And the “Elevated hepatic enzymes, %” value (180 mg oral daily, N = 7001)?
The value was 4.5%.

What about the “Gout, %” value (180 mg oral daily, N = 7001) of the same molecule?
The value was 3.1%.

What about the “Hypoglycemia, %” value (180 mg oral daily, N = 7001) of the same molecule?
Its value is 4.3%.

What about the “Malignancies, %” value (180 mg oral daily, N = 7001) of the same molecule?
Its value is 4.7%.

And the “Metabolic acidosis, %” value (180 mg oral daily, N = 7001)?
Its value is 0.2%.

And the “Myalgia, %” value (180 mg oral daily, N = 7001)?
The value was 5.6%.

And the “Neurocognitive disorders, %” value (180 mg oral daily, N = 7001)?
The value was 0.8%.

And the “Serious treatment emergent adverse event, %” value (180 mg oral daily, N = 7001)?
The value was 25.4%.

And the “Tendinopathies, %” value (180 mg oral daily, N = 7001)?
Its value is 1.7%.

What about the “Change from baseline in creatinine levels” value (after 6 months) of the same molecule?
The value was 0.05 ± 0.2 mg/dL.

What about the “Change from baseline in uric acid levels” value (after 6 months) of the same molecule?
Its value is 0.76 ± 1.2 mg/dL.

What about the “Creatine kinase levels >5x ULN (repeated and confirmed), %” value (at any visit, N = 7001) of the same molecule?
The value was 0.1%.

What about the “Creatine kinase levels >5x ULN (single occurrence), %” value (at any visit, N = 7001) of the same molecule?
The value was 0.6%.

And the “Alanine aminotransferase level >3 times ULN, %” value [1]?
The value was 1.2%.

And the “Aspartate aminotransferase level >3 times ULN, %” value [1]?
The value was 1.1%.

What about the “Premature discontinuation of study drug” value (bempedoic acid-treated patients, full population) of the same molecule?
Its value is 29.1%.

What about the “Worsening hyperglycemia, %” value (in patients with diabetes at baseline) of the same molecule?
Its value is 22.7%.

What about the “New onset diabetes in patients without diabetes at baseline, %” value (investigator-reported, 180 mg oral daily) of the same molecule?
The value was 16.1%.

What about the tolerability of treatment (rates of discontinuation for any reason similar to placebo) of the same molecule?
Its tolerability of treatment is “well tolerated”.

From patent US20240226049A1, “METHODS OF TREATMENT USING BEMPEDOIC ACID” (Esperion Therapeutics, Inc., priority 2023, published 2024)
